# “And” between values parts separate entries of the source, which are not always exact repeats. Equal values may be shown once.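 Briefly, cells in 96-well plates were exposed to five compound concentrations for 48 h, and endpoints were estimated by linear interpolation. At the GI50, growth is halved. Definition used: TGI = concentration required for complete inhibition of growth.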
# Assays:
# Test in all cases: NCI-60 cell line screen, 48 h
# SNB-75 CNS = system: SNB-75 CNS
# MALME-3M melanoma = system: MALME-3M melanoma
# HCT-15 colon = system: HCT-15 colon
# 786-0 renal = system: 786-0 renal
# UO-31 renal = system: UO-31 renal
# NCI-H23 lung = system: NCI-H23 lung
# SW-620 colon = system: SW-620 colon
# KM12 colon = system: KM12 colon
# A498 renal = system: A498 renal
# BT-549 breast = system: BT-549 breast
Compound,GI50 (SNB-75 CNS),TGI (SNB-75 CNS),GI50 (MALME-3M melanoma),TGI (MALME-3M melanoma),GI50 (HCT-15 colon),TGI (HCT-15 colon),GI50 (786-0 renal),TGI (786-0 renal),GI50 (UO-31 renal),TGI (UO-31 renal),GI50 (NCI-H23 lung),TGI (NCI-H23 lung),GI50 (SW-620 colon),TGI (SW-620 colon),GI50 (KM12 colon),TGI (KM12 colon),GI50 (A498 renal),TGI (A498 renal),GI50 (BT-549 breast),TGI (BT-549 breast)
Cn1cc(-c2ccc3c(Nc4cccc(NC(=O)Nc5cccc(F)c5)c4)ncnc3c2)cn1,0.0391 µM,9.57 µM,1.29 µM,3.79 µM,2.5 µM,13.1 µM,1.87 µM,4.46 µM,2.09 µM,13.7 µM,2.99 µM,13.4 µM,1.9 µM,4.45 µM,2.52 µM,10.8 µM,0.0532 µM,2.99 µM,4.04 µM,16 µM
COc1cc(C2c3[nH]c4ccccc4c3C[C@H]3COC(=O)N23)cc(OC)c1OC (stereo not given in full),< 0.01 µM,> 100 µM,< 0.01 µM,> 100 µM,< 0.01 µM,6.72 µM and 1.39 µM,< 0.01 µM,> 100 µM,< 0.01 µM,50.1 µM,< 0.01 µM,,< 0.01 µM,> 100 µM,,1.68 µM,< 0.01 µM,,,
COc1cc2c(cc1O)CC[C@@H]1[C@@H]2CC[C@]2(C)[C@@H](NCCN(C)C)CC[C@@H]12,0.0613 µM,0.378 µM,0.19 µM,0.669 µM,0.111 µM,0.454 µM,0.383 µM,0.831 µM,0.43 µM,0.889 µM,0.161 µM,0.636 µM,0.14 µM,0.556 µM,,,0.164 µM,0.636 µM,0.334 µM,0.858 µM
Cc1c(N2CCCC2)cc2c(c1NC(=O)c1ccccc1Cl)C(C)(C)CC2(C)C,,28.9 µM,,36.1 µM,,28.3 µM,,27.8 µM,,26.4 µM,,28.5 µM,,33.1 µM,,30.3 µM,,29.1 µM,,32 µM
CN(C)c1ccc2c(=O)c3ccccc3oc2n1,,> 100 µM,,> 100 µM,,> 100 µM,,> 100 µM,,> 100 µM,,> 100 µM,,> 100 µM,,> 100 µM,,,,
O=C1[C@@H]2C(c3ccccc3Br)=NO[C@@H]2C(=O)N1c1ccc(Cc2ccc(N3C(=O)[C@H]4C(c5ccccc5Br)=NO[C@H]4C3=O)cc2)cc1,,> 100 µM,,> 100 µM,,> 100 µM,,> 100 µM,,> 100 µM,,> 100 µM,,> 100 µM,,> 100 µM,,> 100 µM,,
CC[C@]1(O)CC(OC2CC(N(C)C)C(O)C(C)O2)c2c(cc3c(c2O)C(=O)c2c(O)cccc2C3=O)[C@@H]1C(=O)OC (stereo not given in full),,1.42 µM,,1.01 µM,,2.75 µM,,5.58 µM,,0.635 µM,,2.47 µM,,3.95 µM,,3.2 µM,,1.13 µM,,4.97 µM
CC(C)(C)NNC(=O)/C(=C/c1ccc([N+](=O)[O-])cc1)NC(=O)c1ccccc1,,> 100 µM,,> 100 µM,,> 100 µM,,> 100 µM,,> 100 µM,,> 100 µM,,,,> 100 µM,,> 100 µM,,
CCCCCCCCCCCCNC(C)=O,,55.8 µM,,34.5 µM,,33.1 µM,,32.5 µM,,46.9 µM,,29.9 µM,,30.9 µM,,35.7 µM,,68 µM,,30.8 µM
CN(Cc1cnc2nc(N)nc(N)c2n1)c1ccc(C(=O)NC(CCC(=O)O)C(=O)O)cc1C(F)(F)F (stereo not given),,> 100 µM,,> 100 µM,,> 100 µM,,> 100 µM,,> 100 µM,,> 100 µM,,> 100 µM,,> 100 µM,,> 100 µM,,
CC(C)/C=C1\CCC(CN2CCCC2)C1=O (stereo not given),,,,17.1 µM,,18.3 µM,,4.8 µM,,32.5 µM,,33.8 µM,,7.94 µM,,23.1 µM,,> 59 µM,,
COc1ccc(C2CC(=O)c3c(O)cc(O)cc3O2)cc1O (stereo not given),,> 100 µM,,> 100 µM,,> 100 µM,,> 100 µM,,> 100 µM,,> 100 µM,,> 100 µM,,> 100 µM,,> 100 µM,,
CCN(CC)CCOCC[C@H]1CC[C@H]2[C@@H]3[C@H](C)Cc4cc(OS(N)(=O)=O)ccc4[C@H]3CC[C@]12C,1.24 µM,3.13 µM,,,1.66 µM,4.72 µM,1.28 µM,2.6 µM,1.54 µM,3.7 µM,1.06 µM,2.92 µM,1.38 µM,2.75 µM,1.25 µM,2.55 µM,1.54 µM,3.96 µM,1.67 µM,3.99 µM
OC(c1cccc(-n2ccc(C(F)(F)F)n2)c1)c1cnccc1NC1CCCCCC1 (stereo not given),1.36 µM,2.67 µM,1.71 µM,3.23 µM,1.6 µM,3.1 µM,1.72 µM,3.18 µM,1.37 µM,2.7 µM,1.74 µM,3.2 µM,1.67 µM,3.31 µM,1.87 µM,3.54 µM,,,1.63 µM,3.06 µM
COc1ccccc1NC(=O)c1sc2nc3c(cc2c1N)C(=O)CCC3,2.36 µM,9.42 µM,1.75 µM,> 100 µM,,,4.05 µM,> 100 µM,,,16.8 µM,> 100 µM,,,,,1.84 µM,> 100 µM,4.43 µM,> 100 µM
Clc1ncnc(Cl)c1Cl,,> 100 µM,,> 100 µM,,> 100 µM,,> 100 µM,,> 100 µM,,> 100 µM,,> 100 µM,,> 100 µM,,,,
COc1ccc(OC)c(/C=N/NC(=O)Cc2csc3nc(-c4ccc(Br)cc4)cn23)c1,23.9 µM,65.4 µM,,,7.42 µM,65.1 µM,26.3 µM,> 100 µM,60.6 µM,> 100 µM,19.3 µM,52.3 µM,6.44 µM,49.1 µM,8.84 µM,> 100 µM,,,12.9 µM,33.6 µM
COC(=O)C1=C(c2ccc(OC)c(OC)c2)OC(c2ccc(OC)c(OC)c2)C1 (stereo not given),,> 100 µM,,69.3 µM,,> 100 µM,,> 100 µM,,> 100 µM,,> 100 µM,,> 100 µM,,> 100 µM,,46.9 µM,,

# Source: PubChem BioAssay (NCI)
